The source of these data is patent US20110306606A1, “NOVEL 2,6-SUBSTITUTED-3-NITROPYRIDINE DERIVATIVE, METHOD FOR PREPARING SAME, AND PHARMACEUTICAL COMPOSITION INCLUDING SAME” (priority 2008, published 2011).

The data set has as its system Osteoblasts (Calvarial cells). To be noted: ICR, mouse, 72 h, 1 μM.
In the case of `CNc1ccc([N+](=O)[O-])c(Nc2ccc(OC)cc2)n1` [Compound 15, 2-(4-methoxyphenylamino)-6-(methylamino)-3-nitropyridine], the “Cell viability (%) Calvarial cell” value is reported as 100%.

`COc1ccc(Nc2nc(NCC(C)C)ccc2[N+](=O)[O-])cc1` [Compound 17, 2-(4-methoxyphenylamino)-6-(isobutylamino)-3-nitropyridine]: the “Cell viability (%) Calvarial cell” value was determined as 96%. Under `COc1ccc(Nc2nc(N3CCC(O)CC3)ccc2[N+](=O)[O-])cc1` [Compound 19, 2-(4-methoxyphenylamino)-6-(4-hydroxypiperidino)-3-nitropyridine] stands 94%; under `COc1ccc(Nc2nc(NC(C)(C)C)ccc2[N+](=O)[O-])cc1` [Compound 23, 2-(4-methoxyphenylamino)-6-(t-butylamino)-3-nitropyridine], 90%. In the case of `COc1ccc(Nc2nc(N3CCN(C)CC3)ccc2[N+](=O)[O-])cc1` [Compound 26, 2-(4-methoxyphenylamino)-6-(4-methylpiperazin-1-yl)-3-nitropyridine], the “Cell viability (%) Calvarial cell” value was 90%.

With `COc1ccc(Nc2nc(N3CCNCC3)ccc2[N+](=O)[O-])cc1` [Compound 27, 2-(4-methoxyphenylamino)-6-(piperazin-1-yl)-3-nitropyridine], the “Cell viability (%) Calvarial cell” value is reported as 97%. Under `COc1ccc(Nc2nc(N3CCOCC3)ccc2[N+](=O)[O-])cc1` [Compound 29, 2-(4-methoxyphenylamino)-6-morpholino-3-nitropyridine] stands 93%. Under `CNc1ccc([N+](=O)[O-])c(Nc2ccc(C(C)(C)C)cc2)n1` [Compound 30, 2-[4-(t-butyl)phenylamino]-6-(methylamino)-3-nitropyridine] stands 90%; under `CC(C)CNc1ccc([N+](=O)[O-])c(Nc2ccc(C(C)(C)C)cc2)n1` [Compound 32, 2-[4-(t-butyl)phenylamino]-6-(isobutylamino)-3-nitropyridine], 91%. Consider `CC(C)(C)c1ccc(Nc2nc(N3CCC(O)CC3)ccc2[N+](=O)[O-])cc1` [Compound 34, 2-[4-(t-butyl)phenylamino]-6-(4-hydroxypiperidino)-3-nitropyridine], for which the “Cell viability (%) Calvarial cell” value amounted to 97%.

As for `CC(C)c1nccn1-c1ccc([N+](=O)[O-])c(Nc2ccc(C(C)(C)C)cc2)n1` [Compound 36, 2-[4-(t-butyl)phenylamino]-6-[(2-isopropyl)imidazol-1-yl]-3-nitropyridine], the “Cell viability (%) Calvarial cell” value was found to be 118%.

Take `CC(C)(C)c1ccc(Nc2nc(NCc3cccnc3)ccc2[N+](=O)[O-])cc1` [Compound 37, 2-[4-(t-butyl)phenylamino]-6-[(3-pyridyl)methylamino]-3-nitropyridine]: the “Cell viability (%) Calvarial cell” value stood at 104%.

Regarding `CC(C)(C)c1ccc(Nc2nc(NCc3ccncc3)ccc2[N+](=O)[O-])cc1` [Compound 38, 2-[4-(t-butyl)phenylamino]-6-[(4-pyridyl)methylamino]-3-nitropyridine], the “Cell viability (%) Calvarial cell” value is listed as 96%.

For the compound `CN1CCN(c2ccc([N+](=O)[O-])c(Nc3ccc(C(C)(C)C)cc3)n2)CC1` [Compound 41, 2-[4-(t-butyl)phenylamino]-6-(4-methylpiperazin-1-yl)-3-nitropyridine], the “Cell viability (%) Calvarial cell” value amounted to 85%. For `CC(C)(C)c1ccc(Nc2nc(N3CCOCC3)ccc2[N+](=O)[O-])cc1` [Compound 44, 2-[4-(t-butyl)phenylamino]-6-morpholino-3-nitropyridine], the “Cell viability (%) Calvarial cell” value is on record as 101%. With `CC(C)CNc1ccc([N+](=O)[O-])c(Nc2ccc(C#N)cc2)n1` [Compound 46, 2-(4-cyanophenylamino)-6-(isobutylamino)-3-nitropyridine], the “Cell viability (%) Calvarial cell” value amounted to 100%.

With `Nc1ccc(Nc2nc(N3CCC(O)CC3)ccc2[N+](=O)[O-])cc1` [Compound 61, 2-[4-(amino)phenylamino]-6-(4-hydroxypiperidino)-3-nitropyridine], the “Cell viability (%) Calvarial cell” value is given as 102%. On to `Nc1ccc(Nc2nc(N3CCNCC3)ccc2[N+](=O)[O-])cc1` [Compound 62, 2-[4-(amino)phenylamino]-6-(piperazin-1-yl)-3-nitropyridine], for which the “Cell viability (%) Calvarial cell” value is 103%.

Turning to `CN1CCN(c2ccc([N+](=O)[O-])c(Nc3ccc(N)cc3)n2)CC1` [Compound 63, 2-[4-(amino)phenylamino]-6-(4-methylpiperazin-1-yl)-3-nitropyridine], the “Cell viability (%) Calvarial cell” value is recorded as 104%.

For the compound `Nc1ccc(Nc2nc(N3CCC(N)CC3)ccc2[N+](=O)[O-])cc1` [Compound 65, 2-[4-(amino)phenylamino]-6-(4-aminopiperidino)-3-nitropyridine], the “Cell viability (%) Calvarial cell” value was 102%.

As to `Nc1ccc(Nc2nc(NCCCn3ccnc3)ccc2[N+](=O)[O-])cc1` [Compound 67, 2-[4-(amino)phenylamino]-6-[(3-imidazol-1-yl)propylamino]-3-nitropyridine], the “Cell viability (%) Calvarial cell” value stood at 111%. Under `CNc1ccc([N+](=O)[O-])c(Nc2cccc(N)c2)n1` [Compound 70, 2-[3-(amino)phenylamino]-6-(methylamino)-3-nitropyridine] stands 105%. Under `CC(C)Nc1ccc([N+](=O)[O-])c(Nc2cccc(N)c2)n1` [Compound 71, 2-[3-(amino)phenylamino]-6-(isopropylamino)-3-nitropyridine] stands 114%. With `CC(C)CNc1ccc([N+](=O)[O-])c(Nc2cccc(N)c2)n1` [Compound 72, 2-[3-(amino)phenylamino]-6-(isobutylamino)-3-nitropyridine], the “Cell viability (%) Calvarial cell” value was 106%.

In the case of `CC(C)(C)Nc1ccc([N+](=O)[O-])c(Nc2cccc(N)c2)n1` [Compound 73, 2-[3-(amino)phenylamino]-6-(t-butylamino)-3-nitropyridine], the “Cell viability (%) Calvarial cell” value stood at 102%. Under `Nc1cccc(Nc2nc(N3CCC(O)CC3)ccc2[N+](=O)[O-])c1` [Compound 74, 2-[3-(amino)phenylamino]-6-(4-hydroxypiperidino)-3-nitropyridine] stands 93%; under `CC(C)c1nccn1-c1ccc([N+](=O)[O-])c(Nc2cccc(N)c2)n1` [Compound 75, 2-[3-(amino)phenylamino]-6-[(2-isopropyl)imidazol-1-yl]-3-nitropyridine], 103%; under `Nc1cccc(Nc2nc(N3CCNCC3)ccc2[N+](=O)[O-])c1` [Compound 76, 2-[3-(amino)phenylamino]-6-(piperazin-1-yl)-3-nitropyridine], 102%.

As to `CN1CCN(c2ccc([N+](=O)[O-])c(Nc3cccc(N)c3)n2)CC1` [Compound 77, 2-[3-(amino)phenylamino]-6-(4-methylpiperazin-1-yl)-3-nitropyridine], the “Cell viability (%) Calvarial cell” value is recorded as 100%. Under `Nc1cccc(Nc2nc(N3CCOCC3)ccc2[N+](=O)[O-])c1` [Compound 78, 2-[3-(amino)phenylamino]-6-morpholino-3-nitropyridine] stands 93%. In the case of `Nc1cccc(Nc2nc(NCCCn3ccnc3)ccc2[N+](=O)[O-])c1` [Compound 82, 2-[3-(amino)phenylamino]-6-[(3-imidazol-1-yl)propylamino]-3-nitropyridine], the “Cell viability (%) Calvarial cell” value was 106%.
